Results: patent US20250206730A1 (AUTOTELIC BIO INC., priority 2022, published 2025)

Key:
[1] = system: TGF-β signaling; test: Assay for evaluating cellular inhibition of TGF-β signaling, 4T1 (SBE-luc2P) luciferase reporter; format: cell-based; details: Mus musculus, 4T1, 4T1 (SBE-luc2P) transient pool, 0.2% FBS, 2 h pre-treatment, TGF-β1 2 ng/mL 24 h; read-out: IC50 4T1 Cell
How it was run: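 Luminescence from SMAD-binding-element luciferase was measured after 24 h of 2 ng/mL TGF-β1 at 37 °C, following 2 h compound pre-treatment. HEK293 stable reporter cells were used at 2.5×10^4/well in 0.5% FBS (~80% confluent); the 4T1 SBE-luc2P transient pool at 6×10^3/well in 0.2% FBS (~60% confluent).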

[2] = target: T1, ALK5 kinase (Homo sapiens, UniProt P36897); test: LanthaScreen Eu Kinase Binding Assay; details: Kinase Tracer 178, Eu-anti-GST Antibody, read-out: IC50 Enzyme
T1 sequence (P36897 34-503): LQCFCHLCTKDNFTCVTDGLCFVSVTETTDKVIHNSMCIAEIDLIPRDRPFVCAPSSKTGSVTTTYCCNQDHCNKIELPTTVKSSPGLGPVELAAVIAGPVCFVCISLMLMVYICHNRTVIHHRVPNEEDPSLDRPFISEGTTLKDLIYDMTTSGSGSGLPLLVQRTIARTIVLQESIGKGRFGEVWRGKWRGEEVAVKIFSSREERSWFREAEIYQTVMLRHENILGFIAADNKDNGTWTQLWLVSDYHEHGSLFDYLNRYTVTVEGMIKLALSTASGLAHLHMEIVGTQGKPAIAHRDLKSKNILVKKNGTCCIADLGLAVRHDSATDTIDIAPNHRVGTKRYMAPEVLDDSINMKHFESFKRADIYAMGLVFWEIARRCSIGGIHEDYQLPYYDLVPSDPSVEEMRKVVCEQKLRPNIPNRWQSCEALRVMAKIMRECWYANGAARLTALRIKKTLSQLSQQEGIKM
How it was run: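 Tracer-displacement TR-FRET: after 30 min RT compound–kinase preincubation, Eu-labelled anti-GST antibody plus Kinase Tracer 178 were incubated 60 min at RT. Binding was read as a lower 665 nm/615 nm emission ratio (excitation 340 nm).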

Compound	IC50 [1]	IC50 [2]
CC(C)c1nc(-c2ccccc2)c(Oc2ccnc(Nc3ccc(C(=O)O)cc3)c2)s1 [A-231, 4-((4-((2-Isopropyl-4-phenylthiazol-5-yl)oxy)pyridin-2-yl)amino)benzoic acid]	< 100 nM	< 100 nM
CC(C)c1nc(-c2ccccc2)c(Oc2ccnc(Nc3ccc(C(=O)O)cn3)c2)s1 [A-232, 6-((4-((2-Isopropyl-4-phenylthiazol-5-yl)oxy)pyridin-2-yl)amino)nicotinic acid]	< 100 nM	< 100 nM
CNc1nc(-c2ccc3ccccc3c2)c(Oc2ccnc(Nc3cccc(S(N)(=O)=O)c3)c2)s1 [A-233, 3-((4-((2-(Methylamino)-4-(naphthalen-2-yl)thiazol-5-yl)oxy)pyridin-2-yl)amino)benzenesulfonamide]	> 100 nM	> 100 nM
Nc1nc(-c2ccc3ccccc3c2)c(Oc2ccnc(Nc3cccc(S(N)(=O)=O)c3)c2)s1 [A-234, 3-((4-((2-Amino-4-(naphthalen-2-yl)thiazol-5-yl)oxy)pyridin-2-yl)amino)benzenesulfonamide]	> 100 nM	> 100 nM
CN(C)c1nc(-c2ccc3ccccc3c2)c(Oc2ccnc(Nc3cccc(S(N)(=O)=O)c3)c2)s1 [A-235, 3-((4-((2-(Dimethylamino)-4-(naphthalen-2-yl)thiazol-5-yl)oxy)pyridin-2-yl)amino)benzenesulfonamide]	> 100 nM	> 100 nM
Cc1nc(-c2ccccc2)c(Oc2ccnc(Nc3cccc(S(N)(=O)=O)c3)n2)s1 [A-238, 3-((4-((2-Methyl-4-phenylthiazol-5-yl)oxy)pyrimidin-2-yl)amino)benzenesulfonamide]	< 100 nM	< 100 nM
Cc1cccc(-c2nc(N)sc2Oc2ccnc(Nc3ccc(C(=O)O)cc3)c2)n1 [A-248, 4-((4-((2-Amino-4-(6-methylpyridin-2-yl)thiazol-5-yl)oxy)pyridin-2-yl)amino)benzoic acid]	> 100 nM	< 100 nM
Cc1cccc(-c2nc(N)sc2Oc2ccnc(Nc3cccc(C(=O)O)c3)c2)n1 [A-249, 3-((4-((2-Amino-4-(6-methylpyridin-2-yl)thiazol-5-yl)oxy)pyridin-2-yl)amino)benzoic acid]	< 100 nM	< 100 nM
CCc1nc(-c2cccc(C)n2)c(Oc2ccnc(Nc3cccc(S(N)(=O)=O)c3)c2)s1 [A-250, 3-((4-((2-Ethyl-4-(6-methylpyridin-2-yl)thiazol-5-yl)oxy)pyridin-2-yl)amino)benzenesulfonamide]	< 100 nM	< 100 nM
CCc1nc(-c2cccc(C)n2)c(Oc2ccnc(Nc3ccc(C(N)=O)cn3)c2)s1 [A-251, 6-((4-((2-Ethyl-4-(6-methylpyridin-2-yl)thiazol-5-yl)oxy)pyridin-2-yl)amino)nicotinamide]	< 100 nM	< 100 nM
CCc1nc(-c2cccc(C)n2)c(Oc2ccnc(Nc3ccc(C(=O)O)cn3)c2)s1 [A-252, 6-((4-((2-Ethyl-4-(6-methylpyridin-2-yl)thiazol-5-yl)oxy)pyridin-2-yl)amino)nicotinic acid]	< 100 nM	< 100 nM
CCc1nc(-c2cccc(C)n2)c(Oc2ccnc(Nc3ccc(C(=O)NC)cn3)c2)s1 [A-253, 6-((4-((2-Ethyl-4-(6-methylpyridin-2-yl)thiazol-5-yl)oxy)pyridin-2-yl)amino)-N-methylnicotinamide]	< 100 nM	< 100 nM
CCc1nc(-c2cccc(C)n2)c(Oc2ccnc(Nc3cccc(C(=O)O)n3)c2)s1 [A-254, 6-((4-((2-Ethyl-4-(6-methylpyridin-2-yl)thiazol-5-yl)oxy)pyridin-2-yl)amino)picolinic acid]	< 100 nM	> 100 nM
CCc1nc(-c2cccc(C)n2)c(Oc2ccnc(Nc3cccc(C(N)=O)n3)c2)s1 [A-255, 6-((4-((2-Ethyl-4-(6-methylpyridin-2-yl)thiazol-5-yl)oxy)pyridin-2-yl)amino)picolinamide]	< 100 nM	< 100 nM
CCc1nc(-c2cccc(C)n2)c(Oc2ccnc(Nc3cccc(C(=O)NC)n3)c2)s1 [A-256, 6-((4-((2-Ethyl-4-(6-methylpyridin-2-yl)thiazol-5-yl)oxy)pyridin-2-yl)amino)-N-methylpicolinamide]	< 100 nM	< 100 nM
CCc1nc(-c2cccc(C)n2)c(Oc2ccnc(Nc3cccc(C(=O)O)c3)c2)s1 [A-257, 3-((4-((2-Ethyl-4-(6-methylpyridin-2-yl)thiazol-5-yl)oxy)pyridin-2-yl)amino)benzoic acid]	< 100 nM	< 100 nM

Compound	IC50 [1]	IC50 [2]
CCc1nc(-c2cccc(C)n2)c(Oc2ccnc(Nc3cccc(C(N)=O)c3)c2)s1 [A-258, 3-((4-((2-Ethyl-4-(6-methylpyridin-2-yl)thiazol-5-yl)oxy)pyridin-2-yl)amino)benzamide]	< 100 nM	< 100 nM
CCc1nc(-c2cccc(C)n2)c(Oc2ccnc(Nc3cccc(C(=O)NC)c3)c2)s1 [A-259, 3-((4-((2-Ethyl-4-(6-methylpyridin-2-yl)thiazol-5-yl)oxy)pyridin-2-yl)amino)-N-methylbenzamide]	< 100 nM	< 100 nM
CCc1nc(-c2cccc(C)n2)c(Oc2ccnc(Nc3cncc(C(=O)O)c3)c2)s1 [A-260, 5-((4-((2-Ethyl-4-(6-methylpyridin-2-yl)thiazol-5-yl)oxy)pyridin-2-yl)amino)nicotinic acid]	> 100 nM	< 100 nM
CCc1nc(-c2cccc(C)n2)c(Oc2ccnc(Nc3cncc(C(N)=O)c3)c2)s1 [A-261, 5-((4-((2-Ethyl-4-(6-methylpyridin-2-yl)thiazol-5-yl)oxy)pyridin-2-yl)amino)nicotinamide]	< 100 nM	< 100 nM
CCc1nc(-c2cccc(C)n2)c(Oc2ccnc(Nc3cncc(C(=O)NC)c3)c2)s1 [A-262, 5-((4-((2-Ethyl-4-(6-methylpyridin-2-yl)thiazol-5-yl)oxy)pyridin-2-yl)amino)-N-methylnicotinamide]	< 100 nM	< 100 nM
CCc1nc(-c2cccc(C)n2)c(Oc2ccnc(Nc3ccnc(C(=O)O)c3)c2)s1 [A-263, 4-((4-((2-Ethyl-4-(6-methylpyridin-2-yl)thiazol-5-yl)oxy)pyridin-2-yl)amino)picolinic acid]	> 100 nM	< 100 nM
CCc1nc(-c2cccc(C)n2)c(Oc2ccnc(Nc3ccnc(C(=O)NC)c3)c2)s1 [A-265, 4-((4-((2-Ethyl-4-(6-methylpyridin-2-yl)thiazol-5-yl)oxy)pyridin-2-yl)amino)-N-methylpicolinamide]	< 100 nM	< 100 nM
CCc1nc(-c2cccc(C)n2)c(Oc2ccnc(Nc3cc(C(=O)O)ccn3)c2)s1 [A-266, 2-((4-((2-Ethyl-4-(6-methylpyridin-2-yl)thiazol-5-yl)oxy)pyridin-2-yl)amino)isonicotinic acid]	> 100 nM	< 100 nM
CCc1nc(-c2cccc(C)n2)c(Oc2ccnc(Nc3cc(C(N)=O)ccn3)c2)s1 [A-267, 2-((4-((2-Ethyl-4-(6-methylpyridin-2-yl)thiazol-5-yl)oxy)pyridin-2-yl)amino)isonicotinamide]	< 100 nM	< 100 nM
CCc1nc(-c2cccc(C)n2)c(Oc2ccnc(Nc3cc(C(=O)NC)ccn3)c2)s1 [A-268, 2-((4-((2-Ethyl-4-(6-methylpyridin-2-yl)thiazol-5-yl)oxy)pyridin-2-yl)amino)-N-methylisonicotinamide]	< 100 nM	< 100 nM
Cc1cccc(-c2nc(C3CC3)sc2Oc2ccnc(Nc3cccc(C(N)=O)c3)c2)n1 [A-274, 3-((4-((2-Cyclopropyl-4-(6-methylpyridin-2-yl)thiazol-5-yl)oxy)pyridin-2-yl)amino)benzamide]	< 100 nM	< 100 nM
Cc1cccc(-c2nc(C3CC3)sc2Oc2ccnc(Nc3ccc(C(N)=O)cn3)c2)n1 [A-275]	< 100 nM	< 100 nM
Cc1cccc(-c2nc(N(C)C)sc2Oc2ccnc(Nc3cccc(S(N)(=O)=O)c3)c2)n1 [A-283, 3-((4-((2-(Dimethylamino)-4-(6-methylpyridin-2-yl)thiazol-5-yl)oxy)pyridin-2-yl)amino)benzenesulfonamide]	< 100 nM	< 100 nM
Cc1cccc(-c2nc(N(C)C)sc2Oc2ccnc(Nc3ccc(C(N)=O)cn3)c2)n1 [A-284, 6-((4-((2-(Dimethylamino)-4-(6-methylpyridin-2-yl)thiazol-5-yl)oxy)pyridin-2-yl)amino)nicotinamide]	< 100 nM	< 100 nM
Cc1cccc(-c2nc(N(C)C)sc2Oc2ccnc(Nc3ccc(C(=O)O)cn3)c2)n1 [A-285, 6-((4-((2-(Dimethylamino)-4-(6-methylpyridin-2-yl)thiazol-5-yl)oxy)pyridin-2-yl)amino)nicotinic acid]	< 100 nM	< 100 nM
